This data set is described as follows: log P by HPLC on a reversed-phase column (C 18), EEC Directive 79/831 Annex V.A8. The format is physicochemical. The note with it: 0.1% aqueous formic acid and acetonitrile; for logP: 40° C., linear gradient 10% to 90% acetonitrile; for chromatographic logP: HPLC C 18, 40° C. Summed up:
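Reversed-phase C18 HPLC at 40° C, 0.1% aqueous formic acid/acetonitrile gradient from 10% to 90% acetonitrile. log P derived from retention times by linear interpolation between unbranched alkan-2-ones (3–16 carbons) of known log P.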

[1] abbreviates: HPLC on reversed-phase column (C 18).
Setting [2] is: HPLC, reversed-phase column (C 18).
Where [3] appears, read: reversed-phase HPLC column (C 18), Table 3 (amines of formula II).
[4] abbreviates: reversed-phase HPLC column (C 18), Table 4 (aldehydes of formula IV).

Data on 63 compounds can be found in patent publication US10070645B2, “N-cycloalkyl-N-{[2-(1-substitutedcycloalkyl)phenyl]methylene}-(thio)carboxamide derivatives” (BAYER CROPSCIENCE AKTIENGESELLSCHAFT, priority 2013, dated 2018).

The logP is a log measure of how a compound divides between an organic and an aqueous phase. High values mean a more lipophilic compound, low ones a more hydrophilic compound. For orientation: chromatographic logP means lipophilicity estimated from chromatographic retention. A lower chromatographic logP goes with lower lipophilicity.

In the case of `Cc1ccc(C2(C)CC2(Cl)Cl)c(CN(C(=O)c2c(C(F)F)nn(C)c2Cl)C2CC2)c1Cl` (racemic) [I.177], the logP under setting [1] turned out to be 4.78.
With `Cn1nc(C(F)F)c(C(=O)N(Cc2cc(C3CC3)ccc2C2(C)CC2(Cl)Cl)C2CC2)c1F` (racemic) [I.169], the logP under setting [1] was 4.59.
Take `COC1(c2ccc(C3=CCOCC3)cc2CN(C(=O)c2c(C(F)F)nn(C)c2F)C2CC2)CC1` [I.124]: the logP under setting [2] stood at 3.55.
On the same count and under the same terms, under `COC1(c2ccc(C3=CCCC3)cc2CN(C(=O)c2c(C(F)F)nn(C)c2F)C2CC2)CC1` [I.126] stands 4.76.
As to `CCC1(c2cccc(F)c2CN(C(=O)c2c(C(F)F)nn(C)c2Cl)C2CC2)CC1` [I.115], the logP under setting [2] is 4.34.
Take `Cn1nc(C(F)F)c(C(=S)N(Cc2ccc(F)cc2C2(C)CC2)C2CC2)c1F` [I.023]: the lipophilicity (logP) under setting [2] stood at 4.56.
For `Cn1nc(C(F)F)c(C(=O)N(Cc2cc(Cl)c(Cl)cc2C2(C)CC2)C2CC2)c1Cl` [I.181], the logP under setting [1] was 4.93.
For the compound `COc1ccc(CN(C(=O)c2c(C(F)F)nn(C)c2F)C2CC2)c(C2(C)CC2)c1` [I.028], the logP under setting [2] came out at 3.69.
The same measure, in the same setting: the result for `CCC1(c2cc(C)c(F)cc2CN(C(=O)c2c(C(F)F)nn(C)c2Cl)C2CC2)CC1` [I.107] reads 4.85; that for `COc1ccc(CN(C(=S)c2c(C(F)F)nn(C)c2F)C2CC2)c(C2(C)CC2)c1` [I.030], 4.34.
For `Cn1nc(C(F)F)c(C(=O)N(Cc2cc(F)ccc2C2(C(F)(F)F)CC2)C2CC2)c1F` [I.165], the logP under setting [1] came out at 3.83.
`CCC1(c2ccccc2CNC2CC2)CC1` [II.23, N-[2-(1-ethylcyclopropyl)benzyl]cyclopropanamine]: the chromatographic logP under setting [3] is 1.52.
Turning to `CCCC1(c2ccc(C)cc2CN(C(=O)c2c(C(F)F)nn(C)c2F)C2CC2)CC1` [I.130], the log partition coefficient (logP) under setting [2] came out at 5.03.
`Cc1ccc(C2(C)CC2)c(CN(C(=O)c2c(C(F)F)nn(C)c2F)C2CC2)c1Cl` [I.086] returned a logP under setting [2] of 4.51.
`C=C(C)c1ccc(CN(C(=O)c2c(C(F)F)nn(C)c2F)C2CC2)c(C2(C)CC2)c1` [I.043] returned a logP under setting [2] of 4.73.
Same read-out and setting: the result for `Cn1nc(C(F)F)c(C(=S)N(Cc2cc(F)ccc2C2(C)CC2)C2CC2)c1F` [I.068] reads 4.49; that for `COC1(c2ccc(C)cc2CN(C(=O)c2c(C(F)F)nn(C)c2F)C2CC2)CC1` [I.122], 3.57; that for `CCC1(c2ccccc2CN(C(=O)c2c(C(F)F)nn(C)c2F)C2CC2)CC1` [I.096], 4.21.
On to `C#CC1(c2ccc(C)cc2CNC2CC2)CC1` [II.17, N-[2-(1-ethynylcyclopropyl)-5-methylbenzyl]cyclopropanamine], for which the chromatographic logP under setting [3] is 1.15.
In the case of `Cn1nc(C(F)F)c(C(=O)N(Cc2ccc(F)cc2C2(C)CC2)C2CC2)c1F` [I.021], the logP under setting [2] is 3.92.
On the same count and under the same terms, under `Cn1nc(C(F)F)c(C(=O)N(Cc2ccc(-c3ccsc3)cc2C2(C)CC2)C2CC2)c1F` [I.040] stands 4.61.
Compound `Cn1nc(C(F)F)c(C(=O)N(Cc2cc(F)ccc2C2(C)CC2(Cl)Cl)C2CC2)c1Cl` (racemic) [I.171] registered a logP under setting [1] of 4.21.
Compound `CC1(c2ccccc2CNC2CC2)CC1` [II.01, N-[2-(1-methylcyclopropyl)benzyl]cyclopropanamine] displayed a chromatographic logP under setting [3] of 1.1.
Turning to `CC1(c2cc(Cl)c(Cl)cc2CNC2CC2)CC1` [II.07, N-[4,5-dichloro-2-(1-methylcyclopropyl)benzyl]cyclopropanamine], under setting [3], the chromatographic logP amounted to 1.79.
As to `N#CC1(c2ccc(Cl)cc2CNC2CC2)CC1` [II.20, 1-{4-chloro-2-[(cyclopropylamino)methyl]phenyl}cyclopropanecarbonitrile], under setting [3], the chromatographic logP was determined as 0.77.
On the same count and under the same terms, the result for `CCC1(c2cc(Cl)ccc2CNC2CC2)CC1` [II.25, N-[4-chloro-2-(1-ethylcyclopropyl)benzyl]cyclopropanamine] reads 1.65.
For the compound `FC(F)C1(c2ccc(Br)cc2CNC2CC2)CC1` [II.37, N-{5-bromo-2-[1-(difluoromethyl)cyclopropyl]benzyl}cyclopropanamine], the chromatographic logP under setting [3] was 1.3.
With `CCC1(c2ccc(Cl)cc2CN(C(=O)c2c(C(F)F)nn(C)c2Cl)C2CC2)CC1` [I.111], the lipophilicity (logP) under setting [2] is 4.77.
Same read-out and setting: the result for `Cc1ccc(C2(C)CC2)c(CN(C(=S)c2c(C(F)F)nn(C)c2F)C2CC2)c1` [I.073] reads 4.80; that for `CC(C)c1ccc(CN(C(=O)c2c(C(F)F)nn(C)c2F)C2CC2)c(C2(C)CC2)c1` [I.025], 4.90; that for `Cn1ccc(-c2ccc(CN(C(=O)c3c(C(F)F)nn(C)c3F)C3CC3)c(C3(C)CC3)c2)c1` [I.034], 4.15.
Still for that read-out and setting: the result for `Cn1nc(C(F)F)c(C(=O)N(Cc2cccc(Cl)c2C2(C)CC2)C2CC2)c1Cl` [I.006] reads 4.44; that for `CCCC1(c2cc(Cl)ccc2CN(C(=O)c2c(C(F)F)nn(C)c2Cl)C2CC2)CC1` [I.129], 5.31.
Turning to `Cc1ccc(C2(C#C[Si](C)(C)C)CC2)c(CNC2CC2)c1` [II.19, N-(5-methyl-2-{1-[(trimethylsilyl)ethynyl]cyclopropyl}benzyl)cyclopropanamine], the chromatographic logP (Table 3 (amines of formula II)) turned out to be 2.05.
Under setting [3], `COc1cc(CNC2CC2)c(C2(C)CC2)cc1OC` [II.08, N-[4,5-dimethoxy-2-(1-methylcyclopropyl)benzyl]cyclopropanamine] had a chromatographic logP of 1.26.
The same measure, in the same setting: under `CCCC1(c2ccc(C)cc2CNC2CC2)CC1` [II.33, N-[5-methyl-2-(1-propylcyclopropyl)benzyl]cyclopropanamine] stands 1.81; under `Fc1ccc(C2(C(F)(F)F)CC2)c(CNC2CC2)c1` [II.46, N-{5-fluoro-2-[1-(trifluoromethyl)cyclopropyl]benzyl}cyclopropanamine], 1.32; under `FC(F)C1(c2cccc(Br)c2CNC2CC2)CC1` [II.41, N-{2-bromo-6-[1-(difluoromethyl)cyclopropyl]benzyl}cyclopropanamine], 1.1.
In turn, `Cn1nc(C(F)F)c(C(=O)N(Cc2cc(Br)ccc2C2(C)CC2)C2CC2)c1Cl` [I.057] gave a logP under setting [2] of 4.56.
The same measure, in the same setting: under `COC1(c2ccccc2CN(C(=O)c2c(C(F)F)nn(C)c2Cl)C2CC2)CC1` [I.117] stands 3.42.
Same read-out and setting: the result for `CCC1(c2ccc(C)cc2CN(C(=O)c2c(C(F)F)nn(C)c2F)C2CC2)CC1` [I.113] reads 4.61; that for `Cn1nc(C(F)F)c(C(=O)N(Cc2cccc(Cl)c2C2(C)CC2)C2CC2)c1F` [I.005], 4.30.
Same read-out and setting: under `COc1cc(CN(C(=O)c2c(C(F)F)nn(C)c2F)C2CC2)c(C2(C)CC2)cc1OC` [I.053] stands 3.33.
For `CCCC1(c2cc(Cl)ccc2C=O)CC1` [IV.19, 4-chloro-2-(1-propylcyclopropyl)benzaldehyde], the chromatographic logP under setting [4] came out at 4.69.
Under setting [2], `Cn1nc(C(F)F)c(C(=O)N(Cc2ccc(-c3ccccc3)cc2C2(C)CC2)C2CC2)c1F` [I.033] gave a logP of 4.93.
Same read-out and setting: under `CCC1(c2cc(Cl)ccc2CN(C(=O)c2c(C(F)F)nn(C)c2Cl)C2CC2)CC1` [I.103] stands 4.82; under `Cn1nc(C(F)F)c(C(=O)N(Cc2ccccc2C2(C)CC2)C2CC2)c1F` [I.001], 3.85.
Still for that read-out and setting: the result for `Cn1nc(C(F)F)c(C(=O)N(Cc2cc(C3CC3)ccc2C2(C(F)F)CC2)C2CC2)c1F` [I.150] reads 3.94; that for `Cn1nc(C(F)F)c(C(=O)N(Cc2ccc3c(c2C2(C)CC2)OCO3)C2CC2)c1Cl` [I.017], 3.67.
Compound `Cc1ccc(C2(C)CC2)c(CN(C(=O)c2c(C(F)F)nn(C)c2F)C2(C#N)CC2)c1` [I.076] yielded a logP under setting [2] of 3.73. This logP and that of the compound before are within 0.2 log units of each other.
Same read-out and setting: the result for `Cn1nc(C(F)F)c(C(=O)N(Cc2cccc(F)c2C2(C)CC2)C2CC2)c1Cl` [I.009] reads 3.99.
In the case of `Cn1nc(C(F)F)c(C(=O)N(Cc2c(C3(C)CC3(Cl)Cl)ccc(Cl)c2F)C2CC2)c1F` (racemic) [I.176], the log partition coefficient (logP) under setting [1] was found to be 4.46.
Take `Cn1nc(C(F)F)c(C(=O)N(Cc2ccc(Oc3ccccc3)cc2C2(C)CC2)C2CC2)c1F` [I.032]: under setting [2], the logP came to 4.91.
Still for that read-out and setting: under `Cn1nc(C(F)F)c(C(=O)N(Cc2c(F)cccc2C2(C)CC2)C2CC2)c1F` [I.089] stands 3.79.
`CCC1(c2cc(C)ccc2CNC2CC2)CC1` [II.26, N-[2-(1-ethylcyclopropyl)-4-methylbenzyl]cyclopropanamine] gave a chromatographic logP under setting [3] of 1.47.
`Cc1ccc(C2(C(F)F)CC2)c(CN(C(=O)c2c(C(F)F)nn(C)c2F)C2CC2)c1` [I.153] returned a logP under setting [2] of 3.64.
The same measure, in the same setting: the result for `CCC1(c2cc(C(F)(F)F)ccc2CN(C(=O)c2c(C(F)F)nn(C)c2Cl)C2CC2)CC1` [I.101] reads 4.86.
`CC1(c2ccc(Cl)cc2CNC2CC2)CC1` [II.10, N-[5-chloro-2-(1-methylcyclopropyl)benzyl]cyclopropanamine] displayed a chromatographic logP under setting [3] of 1.7.
In the case of `CCC1(c2cc(C(F)(F)F)ccc2C=O)CC1` [IV.17, 2-(1-ethylcyclopropyl)-4-(trifluoromethyl)benzaldehyde], the chromatographic logP under setting [4] turned out to be 4.29.
`Cn1nc(C(F)F)c(C(=O)N(Cc2cc(F)ccc2C2(C(F)F)CC2)C2CC2)c1Cl` [I.152]: under setting [2], the logP was 3.53.
As for `CC(C)CC1(c2cc(Cl)ccc2CN(C(=O)c2c(C(F)F)nn(C)c2Cl)C2CC2)CC1` [I.158], the logP under setting [1] is listed as 5.59.
For `CC1(c2ccc(F)cc2C=O)CC1` [IV.11, 5-fluoro-2-(1-methylcyclopropyl)benzaldehyde], the chromatographic logP under setting [4] amounted to 3.22.
Compound `Cn1nc(C(F)F)c(C(=O)N(Cc2cc(Cl)c(Cl)cc2C2(C)CC2)C2CC2)c1F` [I.180] came in with a logP under setting [1] of 4.73.
